Measured values taken from patent US20090047243A1, “COMBINATIONS FOR THE TREATMENT OF B-CELL PROLIFERATIVE DISORDERS” (priority 2007, published 2009).

Experiments:
[1] = test system: RPMI-8226, H929, MM.1S and MM.1R MM cell lines; test: Anti-proliferation assay, statements across MM cell lines; assay type: cell-based, human; conditions: RPMI-8226, H929, MM.1S and MM.1R MM cell lines
Method: The MM.1S, MM.1R, H929, MOLP-8, EJM, INA-6, ANBL6, KSM-12-PE, OPM2, and RPMI-8226 multiple myeloma cell lines, as well as the Burkitt's lymphoma cell line GA-10 and the non-Hodgkin's lymphoma cell lines Farage, SU-DHL6, and Karpas 422 were cultured at 37° C. and 5% CO2 in RPMI-1640 media supplemented with 10% FBS. ANBL6 and INA-6 culture media was also supplemented with 10 ng/ml IL-6. The OCI-ly10 cell line was cultured using RPMI-1640 media supplemented with 20% human serum. MM.1S, MM.1R, OCI-ly10, Karpas 422, and SU-DHL6 cells were provided by the Dana Farber Cancer Institute. H929, RPMI-8226, GA-10, and Farage cells were from ATCC (Cat #'s CCL-155, CRL-9068, CRL-2392 and CRL-2630 respectively). MOLP-8, EJM, KSM-12-PE, and OPM2 were from DSMZ. The ANBL6 and INA-6 cell lines were provided by the M. D. Anderson Cancer Research Center.
Compounds were prepared in DMSO at 1000× the highest desired concentration. Master plates were generated consisting of serially diluted compounds in 2- or 3-fold dilutions in 384-well format. For single agent dose response curves, the master plates consisted of 9 individual compounds at 12 concentrations in 2- or 3-fold dilutions. For combination matrices, master plates consisted of individual compounds at 6 or 9 concentrations at 2- or 3-fold dilutions.
Cells were added to 384-well plates 24 hours prior to compound addition such that each well contained 2000 cells in 35 μL of media. Master plates were diluted 100× (1 μL into 100 μL) into 384-well dilution plates containing only cell culture media. 4.5 μL from each dilution plate was added to each assay plate for a final dilution of 1000×. To obtain combination data, two master plates were diluted into the assay plates. Following compound addition, assay plates were kept at 37° C. and 5% CO2 for 72 hours. Thirty microliters of ATPLite (Perkin Elmer) at room temperature was then added to each well. Final amount of ATP was quantified within 30 minutes using ATPLite luminescent read-out on an Envision 2103 Multilabel Reader (Perkin Elmer). Measurements were taken at the top of the well using a luminescence aperture and a read time of 0.1 seconds per well.
The Loewe additivity model was used to quantify combination effects. Combinations were ranked initially by Additivity Excess Volume, which is defined as ADD Volume=ΣCX, CY (Idata−ILoewe). where ILoewe(CX, CY) is the inhibition that satisfies (CX/ECX)+(CY/ECY)=1, and ECX,Y are the effective concentrations at ILoewe for the single agent curves. A “Synergy Score” was also used, where the Synergy Score S=log fX log fY ΣIdata(Idata−ILoewe), summed over all non-single-agent concentration pairs, and where log fX,Y is the natural logarithm of the dilution factors used for each single agent. This effectively calculates a volume between the measured and Loewe additive response surfaces, weighted towards high inhibition and corrected for varying dilution factors. An uncertainty σS was calculated for each synergy score, based on the measured errors for the Idata values and standard error propagation.

patient CLL cells = test: Apoptosis assay (Hoechst 33342, flow cytometry, 48 h); assay type: cell-based, human; design: unit not given here
From the text: Blood samples were obtained in heparinized tubes with IRB-approved consent from flow cytometry-confirmed B-CLL patients that were either untreated or for whom at least 1 month had elapsed since chemotherapy. Patients with active infections or other serious medical conditions were not included in this study. Patients with white blood cell counts of less than 15,000/μl by automated analysis were excluded from this study. Whole blood was layered on Ficoll-Hystopaque (Sigma), and peripheral blood mononuclear cells (PBMC) isolated after centrification. […] One million cells were stained with anti-CD5-PE and anti-CD19-PE-Cy5 (Becton Dickenson, Franklin Lakes N.J.). The percentage of B-CLL cells was defined as the percentage of cells doubly expressing CD5 and CDl9, as determined by flow cytometry. […] Compound master plates were diluted 1:50 into complete media to create working compound dilutions. Compound crosses were then created by diluting two working dilution plates 1:10 into each plate of cells. […] Hoechst 33342 (Molecular Probes, Eugene Oreg.) at a final concentration of 0.25 μg/1 mL was added to each well, and the cells incubated at 37° C. for an additional ten minutes before being placed on ice until analysis. Plates were then analyzed on a LSR-II flow cytometer (Becton Dickenson, Franklin Lakes, N.J.) equipped with the High Throughput Sampling (HTS) option in high throughput mode. […] The apoptotic fraction was calculated using FlowJo software (Tree Star Inc., Ashland, Oreg.) after excluding debris by a FSC/SSC gate and subsequently gating for cells that accumulate the Hoechst dye.

`OC[C@H]1O[C@@H](n2cnc3c(NC4CCCC4)nc(Cl)nc32)[C@H](O)[C@@H]1O` [2-chloro-N-6-cyclopentyladenosine, 2-chloro-N^6-cyclopentyladenosine] was tested, and the “activity and synergy of adenosine receptor agonists” value (from here on “activity and synergy”) [1] was “active and synergistic”.

With `OC[C@H]1O[C@H](n2cnc3c(NC4CC5CCC4C5)ncnc32)[C@H](O)[C@@H]1O` (stereo partly drawn) [(S)-ENBA, S-N^6-(2-endo-norbornyl)adenosine] the “activity and synergy” value [1] was “active and synergistic”.

For `CCNC(=O)[C@H]1O[C@@H](n2cnc3c(N)nc(NCCc4ccc(CCC(=O)O)cc4)nc32)[C@H](O)[C@@H]1O` [CGS-21680, 2-(4-(2-carboxyethyl)phenethylamino)-5′-N-ethylcarboxamidoadenosine], the Induction of apoptosis (patient CLL cells; CGS-21680 0.05 μM, Roflumilast 0 μM (Table 50)) was 12, the Induction of apoptosis (patient CLL cells; CGS-21680 0.05 μM, Trequinsin 0 μM (Table 51)) was 16 and the Induction of apoptosis (patient CLL cells; CGS-21680 0.15 μM, Roflumilast 0 μM (Table 50)) was 15. For the same compound, the Induction of apoptosis (patient CLL cells; CGS-21680 0.15 μM, Trequinsin 0 μM (Table 51)) was 16, the Induction of apoptosis (patient CLL cells; CGS-21680 […], Roflumilast 0 μM (Table 50)) was 25 and the Induction of apoptosis (patient CLL cells; CGS-21680 […], Trequinsin 0 μM (Table 51)) was 27.

In the case of `CNC(=O)[C@H]1O[C@@H](n2cnc3c(NCc4cccc(I)c4)ncnc32)[C@H](O)[C@@H]1O` [IB-MECA, N^6-(3-iodobenzyl)-5′-N-methylcarboxamidoadenosine], the “activity and synergy” value [1] is reported as “active and synergistic”.

For `CNC(=O)[C@H]1O[C@@H](n2cnc3c(NCc4cccc(I)c4)nc(Cl)nc32)[C@H](O)[C@@H]1O` [chloro-IB-MECA, 2-chloro-N^6-(3-iodobenzyl)-5′-N-methylcarboxamidoadenosine], the “activity and synergy” value [1] was “active and synergistic”.
